Assay results from patent publication US11234943B2, “Use of reservatrol for the treatment of non-alcoholic fatty liver disease (NAFLD)” (priority 2016, dated 2022).
“And” between values parts separate entries of the source, which are not always exact repeats. Equal values may be shown once.

Assays:
[1] = test system: patients with NAFLD; assay: Adverse reactions during the 6-month study; type: in vivo, human; conditions: 50 mg or 200 mg once daily, 6 months
Method: Quantitative fat measurement, with ultrasound on the liver and kidney, were carried out. There was an initial measurement (time 1) and one after six months (time 2). […] As will be apparent, the results were highly positive, see the difference (Liver value Kidney Value) which is decreased during the time, even 2.5 years after the end of the study.
(§1) Then, the patients were divided into two groups (randomly assigned) according to the treatment given to them. 22 patients were given treatment 50 mg RSV micronized formulation, Evelor capsules once daily, (Group A) and 22 patients were given treatment 200 mg RSV micronized formulation, Evelor capsules, once daily, (Group B). The observation period lasted for 6 months. There was a clinical examination, blood tests and an abdominal ultrasound at the beginning of the study (time 1) and in 6 months (time 2). All patients were on low fat diet and they were being followed up by nutritionist.

[2] = test system: NAFLD patients; conditions: meta-analysis of four trials, 156 patients, cited from earlier work
[3] = test system: subjects with non-alcoholic fatty liver disease; conditions: two 150 mg capsules twice daily for three months, cited from earlier work
[4] = test system: patients with NAFLD; assay: Quantitative ultrasound liver/kidney echo measurement (liver fat), hepatic/renal value; type: in vivo, human; parameters: key to Difference (Liver Value − Kidney Value): hepatic minus renal cortex mean gray scale (US hepatic/renal value); key to Liver Value / Kidney Value: mean gray scale value of pixels within the ROI (echo intensity)
From the text: A GE Log IQ5 expert Ultrasound Machine equipped with Ultrasound Transducer Probe (GE 3.5C model 2050357) The equipment can measure the Echo Level (EL) at specific areas and depths. EL measures the mean intensity of pixels within a user defined area (region of interest). Raw data provides the average sum (intensity per pixel)/pixels. The ultrasound depicts on screen the area (in cm^2), mean (intensity dB) and standard deviation (dispersion) Phantom Model 040GSE (CIRS-Multi Purpose, Multi Tissue u/s Phantom) to calibrate the Log IQ. The specific phantom simulates the human liver and kidney organs and serves for calibration.
Regarding the parameters “liver/kidney value” and “liver/kidney depth” we used the same methodology used by Ming-Feng Xia et al., Standardized Ultrasound Hepatic/Renal Ratio and Hepatic Attenuation Rate to Quantify Liver Fat Content: An Improvement Method 10.1038/oby.2011.302.
Ultrasound studies were performed by an experienced radiologist who was unaware of the patient's clinical details and laboratory findings. All the instrument settings, including gain and depth were fixed for each measurement. For assessment of ultrasound hepatic/renal echo value, ultrasound images with both liver and right kidney clearly visualized were obtained in the sagittal liver/right kidney view in the lateral position. A region of interest (ROI) was carefully selected excluding blood vessels, bile ducts and other focal hypoechoic or hyperechoic regions. Another ROI was identified in the right renal cortex with no large vessels, renal sinus or medulla. To avoid the interference of depth-depended echo-intensity attenuation and the borderline echo distorting effects, the boundary between liver and right kidney area should be placed near the center of the image, and the liver and right kidney ROIs were selected at the same depth of the ultrasound images. The gray scale mean value of the pixels within the two ROIs was used as measurement of echo intensity then we subtracted the average hepatic gray scale by the average renal cortex gray scale to calculate the US hepatic/renal value.
Standardization of ultrasound quantitative parameters was performed using an abdominal phantom.
Attenuation measurements were taken at 2 depths, at the Regions of Interest (ROI) xxcm (liver) and yycm (kidney). Attenuation was calculated by subtracting the EL (liver)−EL (kidney)=Hepato-Renal Index Difference.
In sagittal liver/right kidney view, a region of interest (ROI) of 1.5×1.5 cm (1,296 pixels) in the liver parenchyma was selected. The ROI had to be as uniform as possible, excluding blood vessels, bile ducts, and other focal hypo/hyper-echogenicity. Another ROI of 0.5×0.5 cm (144 pixels) was identified in the right renal cortex with no large vessels, renal sinus or medulla. To avoid the interference of depth-depended echo-intensity attenuation and the borderline echo distorting effects, the boundary between liver and right kidney area should be placed near the center of the image, and the liver and right kidney ROIs were selected at the same depth of the ultrasound images. The gray scale mean value of the pixels within the two ROIs was used as measurement of echo intensity. Then we subtracted the average hepatic gray scale by the average renal cortex gray scale to calculate the US hepatic/renal value.
To standardize the measured values of US H/R value and hepatic echo-intensity attenuation rate among different ultrasound machines, a 3D abdominal phantom, containing mimic abdominal organs, was used for standardization in this research.
Then, the patients were divided into two groups (randomly assigned) according to the treatment given to them. 22 patients were given treatment 50 mg RSV micronized formulation, Evelor capsules once daily, (Group A) and 22 patients were given treatment 200 mg RSV micronized formulation, Evelor capsules, once daily, (Group B). The observation period lasted for 6 months. […]

[5] = test system: patients with NAFLD; assay: Blood tests in 6-month study of NAFLD patients given resveratrol micronized formulation; type: in vivo, human; parameters: unit not given here
Method: In this study. 50 mg or 200 mg RSV daily were supplemented to the standard treatment of 44 patients with NAFLD for a period of 6 months and the therapeutic efficacy of RSV was investigated. All patients who participated in this process were volunteers and they have provided written consents as well filled out all the required documents. The patients were selected after they were firstly diagnosed with non-alcoholic fatty liver disease. The primary inclusion criterion was evidence of tatty liver on ultrasonography (LS), which is the most commonly, used imaging technique with remarkable sensitivity. The US findings in non-alcoholic fatty liver disease are:
Participants underwent clinical examination, electrocardiogram and abdominal ultrasound. Also, blood tests were carried out and the following parameters were measured: serum glutamic pyruvic transaminase (SGPT), serum glutamic oxaloacetic transaminase (SGOT), Alkaline phosphatase (ALP), gamma-glutamyl transpeptidase (gGT), glucose, total cholesterol levels, high-density lipoprotein (HDL), low-density lipoprotein (LDL), triglycerides (TG), insulin, insulin resistance, liver value, liver depth, kidney value, kidney depth and difference liver-kidney values.
as §1
Two-way ANOVA with interaction (time and group) was used to test whether there are differences among dose levels, time levels and possible interaction among them. However, no significant interactions were discovered and standard two-way ANOVA was used without interactions. Moreover, an independent t-test was conducted to examine whether there were any differences between the values of physiological parameters at the beginning and the end of the study. A p-value<0.001 was considered to indicate a strongly statistically significant difference. The statistical program used was R 3.2.1.

[6] = Group A, 50 mg once daily, mean at time 1 (beginning of study)
[7] = Group A, 50 mg once daily, mean at time 2 (6 months)
[8] = Group B, 200 mg once daily, mean at time 1 (beginning of study)
[9] = Group B, 200 mg once daily, mean at time 2 (6 months)
[10] = individual patients of Group A (50 mg), first ultrasound, 0 month
[11] = individual patients of Group A (50 mg), fourth ultrasound, 2.5 years from the end of the study
[12] = individual patients of Group A (50 mg), second ultrasound, 6 months
[13] = individual patients of Group A (50 mg), third ultrasound, 6 months after the end of the study
[14] = individual patients of Group B (200 mg), first ultrasound, 0 month
[15] = individual patients of Group B (200 mg), fourth ultrasound, 2.5 years from the end of the study
[16] = individual patients of Group B (200 mg), second ultrasound, 6 months
[17] = individual patients of Group B (200 mg), third ultrasound, 6 months after the end of the study

## Oc1ccc(/C=C/c2cc(O)cc(O)c2)cc1 [Resveratrol, resveratrol]
[1]
  adverse reactions (side effects): No adverse reactions (side effects) were noted
[2]; 95% CI: 0.18, 0.80, higher in resveratrol groups
  total cholesterol, mean difference (MD) vs placebo: 0.49
[2]; 95% CI: 0.21, 0.74, higher in resveratrol groups
  low-density lipoprotein, mean difference (MD) vs placebo: 0.47
[2]
  effects on attenuating NAFLD: negligible effects
[3]; compared with placebo group
  alanine aminotransferase: significantly decreased
  aspartate aminotransferase: significantly decreased
  glucose: significantly decreased
  homeostasis model assessment insulin resistance index: significantly decreased
  low-density lipoprotein cholesterol: significantly decreased
  total cholesterol: significantly decreased
[3]; resveratrol group
  adiponectin level: elevation
  level of TNF-α: significant reductions
  level of cytokeratin 18 fragment: significant reductions
  level of fibroblast growth factor: significant reductions
[4]; [6]
  Difference L − K value: 22.71
  Kidney Value: 32.49
  Liver Value: 55.20
[4]; [7]
  Difference L − K value: 17.00
  Kidney Value: 28.42
  Liver Value: 45.42
[4]; [8]
  Difference L − K value: 26.46
  Kidney Value: 32.30
  Liver Value: 58.77
[4]; [9]
  Difference L − K value: 18.115
  Kidney Value: 25.21
  Liver Value: 43.33
[4]; groups A and B, end of the study
  liver fat as evidenced by ultrasound measurements: strongly statistically significant reduction
[4]; [10]
  Difference (Liver Value − Kidney Value): 14.6 and 32.9 and 20.1 and 23.3 and 43.7 and 34.3
  Kidney Value: 30.4 and 35.0 and 25.3 and 32.6 and 52.4 and 7.0
  Liver Value: 45.0 and 67.9 and 45.4 and 55.9 and 96.1 and 41.3
[4]; [11]
  Difference (Liver Value − Kidney Value): 5.5 and 9.8
  Kidney Value: 75.0 and 75.2
  Liver Value: 80.5 and 85.0
[4]; [12]
  Difference (Liver Value − Kidney Value): 12.8 and 29.5 and 11.8 and 19 and 18.5 and 20.9
  Kidney Value: 29.2 and 26.4 and 20.1 and 30.8 and 26.5 and 21.0
  Liver Value: 42.0 and 55.9 and 31.9 and 49.8 and 45.0 and 41.9
[4]; [13]
  Difference (Liver Value − Kidney Value): 16.7 and 10.3 and 24.4 and 1.6 and 17.6 and 9.4
  Kidney Value: 81.1 and 60.0 and 64.5 and 57.3 and 67.6 and 48.1
  Liver Value: 97.8 and 70.3 and 88.9 and 58.9 and 85.2 and 57.5
[4]; [14]
  Difference (Liver Value − Kidney Value): 28.2 and 35.5 and 32.3 and 47.3 and 24.1 and 20.5 and 41 and 18.8
  Kidney Value: 32.2 and 26.5 and 23.6 and 39.5 and 22.7 and 14.2 and 28.6 and 33.3
  Liver Value: 60.4 and 62.0 and 55.9 and 86.8 and 46.8 and 34.7 and 69.6 and 52.1
[4]; [15]
  Difference (Liver Value − Kidney Value): 7.9 and 5 and 17.3
  Kidney Value: 31.2 and 41.0 and 42.8
  Liver Value: 39.1 and 46.0 and 60.1
[4]; [16]
  Difference (Liver Value − Kidney Value): 14.8 and 23.9 and 19 and 34.2 and 22.2 and 7.4 and 33.5 and 16.4
  Kidney Value: 33.0 and 22.1 and 31.1 and 18.9 and 14.4 and 42.4 and 17.0 and 16.8
  Liver Value: 47.8 and 46.0 and 50.1 and 53.1 and 36.6 and 49.8 and 50.5 and 33.2
[4]; [17]
  Difference (Liver Value − Kidney Value): 13.2 and 8.9 and 22.1 and 10 and 18.3 and 13.7 and 6 and 16.8
  Kidney Value: 61.7 and 53.0 and 55.2 and 84.3 and 55.9 and 71.5 and 75.3 and 40.4
  Liver Value: 74.9 and 61.9 and 77.3 and 94.3 and 74.2 and 85.2 and 81.3 and 57.2
[5]; [6]
  ALP: 63.63
  CH: 194.50
  GLU: 105.95
  HDL: 48.60
  Insulin: 13.58
  Insulin Resistance: 1405.81
  LDL: 119.45
  SGOT: 24.95
  SGPT: 36.09
  TG: 132.50
  gGT: 30.95
[5]; [7]
  ALP: 59.23
  CH: 185.67
  GLU: 96.57
  HDL: 47.67
  Insulin: 12.69
  Insulin Resistance: 1226.04
  LDL: 116.19
  SGOT: 26.33
  SGPT: 37.24
  TG: 109.76
  gGT: 27.00
[5]; [8]
  ALP: 74.50
  CH: 194.27
  GLU: 121.18
  HDL: 41.14
  Insulin: 12.62
  Insulin Resistance: 1541.04
  LDL: 118.75
  SGOT: 32.81
  SGPT: 47.05
  TG: 205.13
  gGT: 29.20
[5]; [9]
  ALP: 71.20
  CH: 181.15
  GLU: 112.50
  HDL: 41.70
  Insulin: 13.01
  Insulin Resistance: 1489.52
  LDL: 105.95
  SGOT: 30.90
  SGPT: 41.70
  TG: 167.80
  gGT: 25.35
